One experiment deals with T1, WT EAG1 channels (Mus musculus, UniProt Q60603).
T1 construct: expressed in transfected cells; host or cells: Xenopus laevis oocytes injected with cRNA
T1 sequence (Q60603 1-989): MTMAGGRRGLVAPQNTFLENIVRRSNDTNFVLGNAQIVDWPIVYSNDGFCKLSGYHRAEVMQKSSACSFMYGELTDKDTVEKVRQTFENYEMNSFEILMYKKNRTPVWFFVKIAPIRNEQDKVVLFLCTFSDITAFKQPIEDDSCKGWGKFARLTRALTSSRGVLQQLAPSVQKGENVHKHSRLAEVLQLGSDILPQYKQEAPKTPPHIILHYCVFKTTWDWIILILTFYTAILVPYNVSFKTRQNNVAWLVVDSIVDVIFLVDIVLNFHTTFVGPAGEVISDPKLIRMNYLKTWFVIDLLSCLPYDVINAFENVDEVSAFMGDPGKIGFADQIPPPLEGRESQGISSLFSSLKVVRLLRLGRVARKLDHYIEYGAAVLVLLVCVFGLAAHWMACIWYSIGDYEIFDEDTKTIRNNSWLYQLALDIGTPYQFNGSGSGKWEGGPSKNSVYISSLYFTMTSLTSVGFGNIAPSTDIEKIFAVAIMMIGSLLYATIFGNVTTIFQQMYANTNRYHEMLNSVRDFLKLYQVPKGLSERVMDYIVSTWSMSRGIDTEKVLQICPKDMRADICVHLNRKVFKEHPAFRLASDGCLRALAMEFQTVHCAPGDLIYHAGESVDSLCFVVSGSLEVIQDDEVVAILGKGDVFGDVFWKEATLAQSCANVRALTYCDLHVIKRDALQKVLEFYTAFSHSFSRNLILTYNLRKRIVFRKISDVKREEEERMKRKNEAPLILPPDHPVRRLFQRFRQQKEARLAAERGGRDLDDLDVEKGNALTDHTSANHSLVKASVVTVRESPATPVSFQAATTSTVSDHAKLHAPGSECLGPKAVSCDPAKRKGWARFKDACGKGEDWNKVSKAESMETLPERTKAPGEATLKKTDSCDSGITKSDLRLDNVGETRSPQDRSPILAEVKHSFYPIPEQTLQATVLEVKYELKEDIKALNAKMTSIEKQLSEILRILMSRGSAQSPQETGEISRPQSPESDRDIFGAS
Briefly: TEVC recording of EAG1 currents in Xenopus oocytes, imipramine inhibition, WT channel. In kind it is cell-based. As to conditions: IC50 for imipramine inhibition at +50 mV. The text has this: (§1) The cDNA encoding wild-type (WT) mouse EAG1 channels in pGH19 vector was kindly provided by G. Robertson (University of Wisconsin-Madison, Madison, WI). The mutant ΔPAS EAG1 channel in pGH19 with the deletion of the PAS domain residues 2 to 130 was generated by Bio Basic Inc and verified by DNA sequencing (Genewiz). Mutant EAG1 channels with single amino acid substitutions were generated by Genewiz and verified by DNA sequencing. cRNA was transcribed using the T7 mMessage mMachine kit (Thermo Fisher Scientific). Defolliculated Xenopus laevis oocytes were purchased from Ecocyte Bioscience or Xenopus1 and injected with the cRNA using a Nanoinject II oocyte injector (Drummond).
(§2) For EAG1 current recordings, oocytes were placed into a handmade chamber containing a bath solution for the current recording. The currents were recorded using a TEVC technique with OC-725C amplifier (Warner Instruments) and pClamp11 software (Molecular Devices). The signals were digitized using Digidata 1550 (Molecular Devices). Patch pipettes were pulled from borosilicate glass and had resistances of 0.7 to 1.5 MΩ. The recording (bath) solution contained 96 mM NaCl, 4 mM KCl, 0.1 mM CaCl2, 1.8 mM MgCl2, and 5 mM HEPES, pH 7.5. The pipette solution contained 3 M KCl. […]

Experiment [1] addresses T2, Y71V mutant EAG1 channels (Mus musculus, UniProt Q60603, Y71V).
T2 construct: expressed in transfected cells; host or cells: Xenopus laevis oocytes injected with cRNA
T2 sequence (Q60603 1-989 Y71V): T1 sequence (Q60603 1-989) with Y71V
Briefly: TEVC recording, imipramine inhibition, Y71V mutant. In kind it is cell-based. The note with it: Y71V mutant EAG1 channel, +50 mV.
Text: as §1, §2

Substitutions are numbered along the chain they refer to.

In the case of `CN(C)CCCN1c2ccccc2CCc2ccccc21` [imipramine], the IC50 at WT EAG1 channels came out at 58.1 ± 9.7 µM; in experiment [1], 31.3 ± 1.8 µM.

For the origin of these results see paper PMC10687071 (The Journal of Biological Chemistry, 2023).
